Where a name gives a salt, the structure may show the parent alone.
Tests used:
[1] = target: T1, TIP48/TIP49 complex (Homo sapiens, UniProt Q9Y230+Q9Y265); assay: ATPase assay of TIP48/TIP49 complex (ADP-Glo); format: biochemical; details: concentration at which the ATPase activity was inhibited by 50%
T1 construct: made in house; host or cells: E. coli
Text: The ATPase activity of the TIP48/TIP49 complex can be measured by use of an ATPase assay described below in Test Examples 1 and 2. The ATPase activity of the TIP48/TIP49 complex can be measured, as described below in the Test Examples, for example, by using recombinant human TIP48 and TIP49 proteins (hereinafter, referred to as rTIP48 and rTIP49) and ATP in the presence or absence of a test compound and measuring the amount of ADP formed through hydrolysis by the ATPase activity of the TIP48/TIP49 complex, using ADP-Glo. Alternatively, the ATPase activity of the TIP48/TIP49 complex can be measured by a method described in, for example, J. Mol. Biol. 366, 172-179 (2007).
An ATPase assay of a TIP48/TIP49 complex was conducted using rTIP48 and rTIP49. Human TIP48 and TIP49 DNAs were purchased from Open Biosystems. Human TIP48 and TIP49 cDNAs cloned by PCR using the purchased DNAs were each integrated into plasmids for expression in E. coli and expressed in E. coli to obtain rTIP48 and rTIP49.
A test compound was dissolved at 10 mM using DMSO. The solution was diluted to 10 concentrations as 4-fold serial dilutions from 10 mM using DMSO.
A 2×assay buffer (100 mM Tris-HCl, pH 7.5, 100 mM NaCl, 40 mM MgCl2, 2 mM DTT, 20 μM ATP, and 0.2 mg/mL BSA) was dispensed at 24.5 μL/well to a 384-well assay plate.
Test compound solutions were dispensed thereto at 1 μL/well. Subsequently, the solution in each well was mixed using a plate mixer.
rTIP48 and rTIP49 were diluted to a concentration of 50 μg/mL using sterilized water. The diluted solution was dispensed at 24.5 μL/well to the 384-well assay plate. Subsequently, the solution in each well was mixed using a plate mixer (final concentration: 24.5 μg/mL) (concentration of each test compound solution: 200 μM, 50 μM, 12.5 μM, 3.12 μM, 0.78 μM, 0.20 μM, 0.049 μM, 0.012 μM, 0.003 μM, and 0.0007 μM; DMSO concentration: 2%).
After the mixing using the plate mixer, the assay plate was left standing at room temperature for 1.5 hours.
5 μL of the solution in each well was transferred to a white assay plate, and ADP-Glo Reagent from ADP-Glo Kinase Assay (Promega Corp., catalog No. V9101) was dispensed thereto at 5 μL/well. After completion of the reaction, the plate was left standing at room temperature for 40 minutes. Kinase Detection Reagent was further dispensed thereto at 5 μL/well, and the plate was left standing at room temperature for 30 minutes. Then, luminescence intensity was measured using a plate reader.
The ATPase inhibitory activity was calculated according to the expression given below.
The luminescence intensity of a well supplemented with the test compound and the TIP48/TIP49 complex was defined as A. The luminescence intensity of a well supplemented with only the TIP48/TIP49 complex was defined as B. The luminescence intensity of a well supplemented with neither the test compound nor the TIP48/TIP49 complex was defined as C. The ratio between the test compound-supplemented group and the test compound-nonsupplemented group (T/C value) was determined according to the following calculation expression:
The dose-response curve was calculated using GraphPad Prism 4 from the concentration of each of the serially diluted test compounds and the ATPase inhibitory activity (%) at this concentration.

[2] = test system: human lymphoma cell line RAMOS cells; assay: Cell growth inhibition test using RAMOS cell, ATP assay (CellTiter-Glo); format: cell-based; details: Homo sapiens, Ramos, 72 h, cultured 3 days, 50% growth inhibition concentration
Method: A cell growth inhibition test was carried out by treating human lymphoma cell line RAMOS cells with a test compound for a given period and then counting the number of viable cells by MTT assay or CellTiter-Glo Luminescent Cell Viability Assay (manufactured by Promega Corp.; hereinafter, referred to as ATP assay).
RAMOS cells were inoculated at 4000 cells/40 μL/well to a 384-well plate containing the compound prepared in advance at predetermined concentrations. The cells thus inoculated were cultured at 37° C. for 3 days under 5% CO2. In order to measure a cell survival rate, CellTiter-Glo Reagent was added in an amount corresponding to 1/4 of the amount of the culture solution at the day of cell inoculation and at the final culture date and stirred at room temperature for 2 minutes. Then, luminescence intensity was measured using a plate reader. The cell survival rate was calculated according to the expression given below.
The number of viable cells and luminescence intensity have been confirmed to correlate with each other. Therefore, the rate of cell growth was calculated according to the following expression: Rate of cell growth (T/C %) of a test compound-supplemented well=100×[(B−C)/(A−C)] wherein A represents the luminescence intensity (final culture date) of a test compound-free well; B represents the luminescence intensity (final culture date) of a test compound-containing well; and C represents the luminescence intensity (day of cell inoculation) of a well at the start of contact of the cells with the test compound.
T/C % at each concentration of the test compound was determined. The concentration at which the test compound offered 50% growth rate was calculated as a GI50 value from the growth rates at two points interpolating 50% and the concentrations, and is shown in Table 56.

T1 sequence (Q9Y230 whole entry): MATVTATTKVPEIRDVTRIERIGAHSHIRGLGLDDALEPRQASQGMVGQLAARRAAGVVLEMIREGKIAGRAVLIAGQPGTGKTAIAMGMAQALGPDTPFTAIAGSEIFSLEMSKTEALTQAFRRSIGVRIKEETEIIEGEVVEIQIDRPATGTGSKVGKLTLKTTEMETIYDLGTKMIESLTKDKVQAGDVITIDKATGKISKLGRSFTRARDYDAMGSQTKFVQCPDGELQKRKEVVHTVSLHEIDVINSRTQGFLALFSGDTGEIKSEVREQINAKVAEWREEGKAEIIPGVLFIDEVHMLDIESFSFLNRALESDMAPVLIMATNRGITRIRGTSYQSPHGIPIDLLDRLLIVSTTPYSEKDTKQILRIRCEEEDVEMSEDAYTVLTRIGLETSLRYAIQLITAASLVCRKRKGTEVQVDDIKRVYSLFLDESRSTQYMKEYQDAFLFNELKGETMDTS
T1 sequence (Q9Y265 whole entry): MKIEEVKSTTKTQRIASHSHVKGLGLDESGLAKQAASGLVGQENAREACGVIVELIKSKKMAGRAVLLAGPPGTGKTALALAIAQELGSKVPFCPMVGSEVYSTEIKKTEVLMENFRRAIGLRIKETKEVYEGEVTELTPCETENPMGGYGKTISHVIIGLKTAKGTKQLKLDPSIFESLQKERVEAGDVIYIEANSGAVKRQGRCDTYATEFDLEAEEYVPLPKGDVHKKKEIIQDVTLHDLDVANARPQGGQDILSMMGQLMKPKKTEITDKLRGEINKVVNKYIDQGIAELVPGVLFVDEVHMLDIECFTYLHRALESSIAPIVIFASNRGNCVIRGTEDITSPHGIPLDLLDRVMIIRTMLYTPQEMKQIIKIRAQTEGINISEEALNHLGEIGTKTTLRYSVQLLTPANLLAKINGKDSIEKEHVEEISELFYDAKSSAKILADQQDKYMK

| SMILES | IC50 [1] [nM] | GI50 [2] [nM] |
| --- | --- | --- |
| CCOc1ncc(Cl)cc1C(=O)NCC(C)(C)CC(=O)Nc1c(C[C@H](C)N(C)C)n(C)n(-c2ccccc2)c1=O [Example 53, 5-Chloro-N-[4-({5-[(2S)-2-(dimethylamino)propyl]-1-methyl-3-oxo-2-phenyl-2,3-dihydro-1H-pyrazol-4-yl}amino)-2,2-dimethyl-4-oxobutyl]-2-ethoxypyridine-3-carboxamide] | 63 | 240 |
| Cc1cc2cc(Cl)cc(C(=O)NCC(C)(C)CC(=O)Nc3c(C[C@H](C)N(C)C)n(C)n(-c4ccccc4)c3=O)c2o1 [Example 54, 5-Chloro-N-[4-({5-[(2S)-2-(dimethylamino)propyl]-1-methyl-3-oxo-2-phenyl-2,3-dihydro-1H-pyrazol-4-yl}amino)-2,2-dimethyl-4-oxobutyl]-2-methylbenzofuran-7-carboxamide] | 94 | 140 |
| CCOc1ccc(Cl)cc1C(=O)NCC(C)(C)CC(=O)Nc1c(CC(C)(C)N)n(C)n(-c2ccccc2)c1=O [Example 55, N-(4-{[5-(2-Amino-2-methylpropyl)-1-methyl-3-oxo-2-phenyl-2,3-dihydro-1H-pyrazol-4-yl]amino}-2,2-dimethyl-4-oxobutyl)-5-chloro-2-ethoxybenzamide] | 43 | 170 |
| CCOc1ncc(Cl)cc1C(=O)NCC(C)(C)CC(=O)Nc1c(CC(C)(C)N(C)C)n(C)n(-c2ccccc2)c1=O [Example 57, 5-Chloro-N-[4-({5-[2-(dimethylamino)-2-methylpropyl]-1-methyl-3-oxo-2-phenyl-2,3-dihydro-1H-pyrazol-4-yl}amino)-2,2-dimethyl-4-oxobutyl]-2-ethoxypyridine-3-carboxamide] | 70 | 190 |
| Cc1cc2cc(Cl)cc(C(=O)NCC(C)(C)CC(=O)Nc3c(CC(C)(C)N)n(C)n(-c4ccccc4)c3=O)c2o1 [Example 58, N-(4-{[5-(2-amino-2-methylpropyl)-1-methyl-3-oxo-2-phenyl-2,3-dihyro-1H-pyrazol-4-yl]amino}-2,2-dimethyl-4-oxobutyl)-5-chloro-2-methylbenzofuran-7-carboxamide] | 58 | 110 |
| CCOc1ccc(Cl)cc1C(=O)NCC(C)(C)CC(=O)Nc1c(CC(C)(C)NC)n(C)n(-c2ccccc2)c1=O [Example 59, 5-Chloro-N-[2,2-dimethyl-4-({1-methyl-5-[2-methyl-2-(methylamino)propyl]-3-oxo-2-phenyl-2,3-dihydro-1H-pyrazol-4-yl}amino)-4-oxobutyl]-2-ethoxybenzamide] | 34 | 150 |
| CCOc1ncc(Br)cc1C(=O)NCC(C)(C)CC(=O)Nc1c(CC(C)(C)NC)n(C)n(-c2ccccc2)c1=O [Example 60, 5-Bromo-N-[2,2-dimethyl-4-({1-methyl-5-[2-methyl-2-(methylamino)propyl]-3-oxo-2-phenyl-2,3-dihydro-1H-pyrazol-4-yl}amino)-4-oxobutyl]-2-ethoxypyridine-3-carboxamide] | 94 | 370 |
| CNC(C)(C)Cc1c(NC(=O)CC(C)(C)CNC(=O)c2cc(Cl)cc3cc(C)oc23)c(=O)n(-c2ccccc2)n1C [Example 61, 5-Chloro-N-[2,2-dimethyl-4-({1-methyl-5-[2-methyl-2-(methylamino)propyl]-3-oxo-2-phenyl-2,3-dihydro-1H-pyrazol-4-yl}amino)-4-oxobutyl]-2-methylbenzofuran-7-carboxamide] | 52 | 390 |
| CCOc1ccc(Cl)cc1C(=O)NCC(C)(C)CC(=O)Nc1c(C(C)CN(C)C)n(C)n(-c2ccccc2)c1=O (stereo not drawn) [Example 66, 5-Chloro-N-[4-({5-[2-(dimethylamino)-1-methylethyl]-1-methyl-3-oxo-2-phenyl-2,3-dihydro-1H-pyrazol-4-yl}amino)-2,2-dimethyl-4-oxobutyl]-2-ethoxybenzamide] | 58 | 160 |
| CCOc1ccc(Cl)cc1C(=O)NCC(C)(C)CC(=O)Nc1c([C@@H](C)CN(C)C)n(C)n(-c2ccccc2)c1=O [Example 67, 5-Chloro-N-[4-({5-[(1S)-2-(dimethylamino)-1-methylethyl]-1-methyl-3-oxo-2-phenyl-2,3-dihydro-1H-pyrazol-4-yl}amino)-2,2-dimethyl-4-oxobutyl]-2-ethoxybenzamide] | 36 | 150 |

The next lines start with the values.

| IC50 [1] [nM] | GI50 [2] [nM] | SMILES |
| --- | --- | --- |
| 40 | 120 | CCOc1ccc(Cl)cc1C(=O)NCC(C)(C)CC(=O)Nc1c(CC(C)(C)N(C)C)n(C)n(-c2ccccc2)c1=O [Example 56, 5-Chloro-N-[4-({5-[2-(dimethylamino)-2-methylpropyl]-1-methyl-3-oxo-2-phenyl-2,3-dihydro-1H-pyrazol-4-yl}amino)-2,2-dimethyl-4-oxobutyl]-2-ethoxybenzamide] |
| 150 | 500 | CCOc1ccc(Cl)cc1C(=O)NCC(CF)(CF)CC(=O)Nc1c(CCN(C)C)n(C)n(-c2ccccc2)c1=O [Example 62, 5-Chloro-N-[4-({5-[2-(dimethylamino)ethyl]-1-methyl-3-oxo-2-phenylpyrazolo-4-yl}amino)-2,2-bis(fluoromethyl)-4-oxobutyl]-2-ethoxybenzamide] |
| 99 | 190 | CCOc1cc(F)c(Cl)cc1C(=O)NCC(C)(C)CC(=O)Nc1c(CCCN(C)C)n(C)n(-c2ccccc2)c1=O [Example 64, 5-Chloro-N-[4-({5-[3-(dimethylamino)propyl]-1-methyl-3-oxo-2-phenyl-2,3-dihydro-1H-pyrazol-4-yl}amino)-2,2-dimethyl-4-oxobutyl]-2-ethoxy-4-fluorobenzamide monohydrochloride] |
| 44 | 200 | Cc1cc2cc(Cl)cc(C(=O)NCC(C)(C)CC(=O)Nc3c(CCCN(C)C)n(C)n(-c4ccccc4)c3=O)c2o1 [Example 65, 5-Chloro-N-[4-({5-[3-(dimethylamino)propyl]-1-methyl-3-oxo-2-phenyl-2,3-dihydro-1H-pyrazol-4-yl}amino)-2,2-dimethyl-4-oxobutyl]-2-methylbenzofuran-7-carboxamide] |
| 65 | 160 | CCOc1cc(F)c(Cl)cc1C(=O)NCC(C)(C)CC(=O)Nc1c(C(C)CN(C)C)n(C)n(-c2ccccc2)c1=O (stereo not drawn) [Example 69, 5-Chloro-N-[4-({5-[2-(dimethylamino)-1-methylethyl]-1-methyl-3-oxo-2-phenyl-2,3-dihydro-1H-pyrazol-4-yl}amino)-2,2-dimethyl-4-oxobutyl]-2-ethoxy-4-fluorobenzamide] |
